Laboratory results: patent US20220362399A1, “COMPOSITIONS AND ARTICLES COMPRISING (NANO)DIAMOND PARTICLES” (Debina Diagnostics, Inc., priority 2019, published 2022)

Columns and labels:
HUVEC [1] = experiment: Cell counting assay, HUVEC; assay type: cell-based; details: Homo sapiens, vincristine 50 μg/mL, 24 hours, read-out: proliferation, % of controls
Protocol: (§1) Cell counting was performed. The HepG-2 cell line was purchased from American Type Culture Collection (ATTC) (Manassas, Va., USA). Primary HUVEC were purchased from Lonza and used for experiments between the 5th-8th passages. Cells maintained (37° C. at 5% CO2 atmosphere) in their respective culture media as described above. HepG-2 and HUVEC were ‘seeded’ in 96-well plates (2×10^3 per well in 100 μL medium) and treated or not with FDP-NV-BSA for 24 hours. In each experiment, vincristine (50 μg/mL), a cell-cycle proliferation inhibitor, was added as a positive control. At 24 hrs, the medium was removed, the cells were fixed with 4% paraformaldehyde (PFA, ThermoFisher Sci) and the nuclei were stained using DAPI (4′,6-diamino-2-phenylindole, dihydrochloride, ThermoFisher Sci). The plates were analyzed in a fluorescence microscope (Olympus IX81, Olympus, Tokyo, Japan) by imaging 7 observation fields for each well using 100× magnification and DAPI (blue filter) for nuclei visualization, and TRITC (red filter) for FNDP-NV-BSA visualization. The number of viable cells in each field was determined by analysis of DAPI stained nuclei using ImageJ software (National Institutes of Health, Bethesda, Md., USA) with a digitally set-up cell counter.

HepG-2 cells [2] = experiment: MTT assay (redox state), HepG-2; assay type: cell-based, human; details: vincristine 50 μg/mL, 24 hours
Protocol: (§2) The MTT assay was performed as a colorimetric assay using the Cell Proliferation Assay Kit (ThermoFisher Sci), composed of component A (3-(4,5-dimethylthiazol-2-yl)-2,5-diphenyltetrazolium bromide (MTT)) and component B (SDS (sodium dodecyl sulfate)) according to manufacturer's protocol. Briefly, HepG-2 cells and HUVEC were seeded in 96-well plates at a density of 1×10^4 cells per well in media described above for each cell type. Cells were treated or not with FDP-NV-BSA or vincristine (50 μg/mL) for 24 hours. Media (100 μL) were changed to phenol red-free DMEM (Dulbecco's Modified Eagle Medium) (ThermoFisher Sci), containing MTT component A. Plates were incubated for 4 hours, and cells lysed by adding equal volumes of 10% SDS (kit component B). Plates were incubated overnight and read using an ELISA plate reader ELx800 (BioTek, Winooski, Vt., USA) at 562 nm wavelength.

HUVEC [3] = experiment: MTT assay (redox state), HUVEC; assay type: cell-based, human; details: vincristine 50 μg/mL, 24 hours
Protocol: as §2

HepG-2 cells [4] = experiment: Cell counting assay, HepG-2; assay type: cell-based; details: Homo sapiens, HepG2; vincristine 50 μg/mL, 24 hours; read-out: proliferation, % of controls
Protocol: as §1

CHOP and BiP [5] = experiment: ER-stress biomarkers (Western blot), HepG-2; assay type: cell-based, human; details: tunicamycin 25 μg/mL
Protocol: (§3) HepG-2 cells and HUVEC were treated (or not) with 0.1 mg/mL FDP-NV-BSA as described above. Treatment with vincristine (200 μg/mL) was used as a positive control for apoptosis, and with tunicamycin (25 μg/mL) as a positive control for ER-stress. A rabbit polyclonal antibody against caspase 3 (Cell Sign. Techn), which recognizes both the cleaved and the non-cleaved protein, was used for apoptosis detection. Rabbit mAb (clone C50B12) against BiP and mouse mAb (clone L63F7) against Chop (both from Cell Sign. Techn) were used for the detection of ER-stress. Equal loading of proteins was verified by membrane stripping and re-probing with an anti-actin mouse monoclonal antibody (Sigma Inc.).

CHOP and BiP [6] = experiment: ER-stress biomarkers (Western blot), HUVEC; assay type: cell-based, human; details: tunicamycin 25 μg/mL
Protocol: as §3

| Compound | activity at 50 µg/mL (HUVEC [1]) | redox activity, % of normal controls (HepG-2 cells [2]) | redox activity, % of normal controls (HUVEC [3]) | activity at 50 µg/mL (HepG-2 cells [4]) | ER-stress protein activation (CHOP and BiP [5]) | ER-stress protein activation (CHOP and BiP [6]) |
| --- | --- | --- | --- | --- | --- | --- |
| CC[C@]1(O)C[C@H]2CN(CCc3c([nH]c4ccccc34)[C@@](C(=O)OC)(c3cc4c(cc3OC)N(C=O)[C@H]3[C@@](O)(C(=O)OC)[C@H](OC(C)=O)[C@]5(CC)C=CCN6CC[C@]43[C@@H]65)C2)C1 [vincristine] | 80% | 25-30% | 25-30% | 50% | – | – |
| tunicamycin | – | – | – | – | sensitive | sensitive |
